pEC50: −log10 of the molar value.
Target: T1, F508delCFTR cell surface expression in CFBE41o-F508delCFTR-HRP cells (Homo sapiens, UniProt P13569, DEL508-508)
T1 construct: fused on or other part: Horseradish peroxidase (HRP) reporter inserted in the fourth exofacial (extracellular) loop of CFTR; expression is doxycycline-inducible
Assay: Cell Surface Expression-Horse Radish Peroxidase (CSE-HRP) Assay
Assay type: cell-based
Settings: for pEC50: CFBE41o-F508delCFTR-HRP cells, 18-24 hours at 33° C., 8-point curve, highest concentration 20 μM; for Maximum % activity (%): maximum at any tested concentration, normalized to on-plate positive control (3 μM)
Procedure, shortened: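 Correctors incubated 18-24 h at 33 °C on doxycycline-induced (0.5 μg/mL, 72 h) CFBE41o-F508delCFTR-HRP cells, 3-fold series from 20 μM. After DPBS washes, luminol luminescence read; activity expressed relative to DMSO and a 3 μM positive control, EC50 fitted from triplicate plates.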

T1 sequence (P13569 with tags, fused parts or gaps DEL508-508 limits assumed): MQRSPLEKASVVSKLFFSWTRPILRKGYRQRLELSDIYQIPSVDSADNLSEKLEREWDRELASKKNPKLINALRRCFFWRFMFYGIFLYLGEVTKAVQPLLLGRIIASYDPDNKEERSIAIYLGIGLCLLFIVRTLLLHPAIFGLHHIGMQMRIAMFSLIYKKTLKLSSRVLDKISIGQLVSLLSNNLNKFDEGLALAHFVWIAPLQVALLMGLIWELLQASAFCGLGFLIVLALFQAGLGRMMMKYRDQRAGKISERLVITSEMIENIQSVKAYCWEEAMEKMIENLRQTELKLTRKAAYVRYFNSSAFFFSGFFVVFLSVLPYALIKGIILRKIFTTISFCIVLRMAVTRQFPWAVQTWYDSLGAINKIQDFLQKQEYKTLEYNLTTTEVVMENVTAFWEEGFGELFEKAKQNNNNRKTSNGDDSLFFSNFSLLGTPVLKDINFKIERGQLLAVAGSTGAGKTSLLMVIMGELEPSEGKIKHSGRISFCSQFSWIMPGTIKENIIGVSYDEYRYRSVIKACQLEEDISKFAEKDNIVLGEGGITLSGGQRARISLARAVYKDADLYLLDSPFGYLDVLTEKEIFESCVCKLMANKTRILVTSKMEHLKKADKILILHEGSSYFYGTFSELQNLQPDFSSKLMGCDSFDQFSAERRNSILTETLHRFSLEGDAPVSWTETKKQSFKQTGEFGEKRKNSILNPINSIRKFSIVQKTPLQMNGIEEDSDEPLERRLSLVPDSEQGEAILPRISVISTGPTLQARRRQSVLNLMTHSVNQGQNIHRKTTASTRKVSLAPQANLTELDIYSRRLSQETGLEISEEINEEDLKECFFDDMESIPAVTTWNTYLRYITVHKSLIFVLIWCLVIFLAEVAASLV
T1 sequence (P13569 919-1480 limits assumed, stated change not applied): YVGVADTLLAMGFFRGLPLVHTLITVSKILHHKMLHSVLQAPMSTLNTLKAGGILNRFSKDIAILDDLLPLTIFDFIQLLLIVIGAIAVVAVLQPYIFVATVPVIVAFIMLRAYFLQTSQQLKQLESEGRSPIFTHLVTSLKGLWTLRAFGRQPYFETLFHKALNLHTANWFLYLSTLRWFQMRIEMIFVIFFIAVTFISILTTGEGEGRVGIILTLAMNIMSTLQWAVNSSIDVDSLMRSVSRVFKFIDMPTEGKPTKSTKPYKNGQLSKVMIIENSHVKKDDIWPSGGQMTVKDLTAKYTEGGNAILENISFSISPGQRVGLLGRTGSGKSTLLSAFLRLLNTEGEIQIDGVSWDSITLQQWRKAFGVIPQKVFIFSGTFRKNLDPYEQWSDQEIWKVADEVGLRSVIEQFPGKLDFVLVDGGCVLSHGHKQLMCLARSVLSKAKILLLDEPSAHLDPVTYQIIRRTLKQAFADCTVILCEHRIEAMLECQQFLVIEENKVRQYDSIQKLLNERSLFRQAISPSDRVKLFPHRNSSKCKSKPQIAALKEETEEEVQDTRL

| Structure (SMILES) | pEC50 | Maximum % activity (%) |
| --- | --- | --- |
| COc1ccc2c(c1)O[C@@H](c1ccc(C(=O)N3CCC(O)CC3)cn1)C[C@H]2NC(=O)[C@@]1(C)COc2cc3c(cc21)OC(F)(F)O3 [Example 212, (7R)-2,2-difluoro-N-{(2R,4R)-2-[5-(4-hydroxypiperidine-1-carbonyl)pyridin-2-yl]-7-methoxy-3,4-dihydro-2H-1-benzopyran-4-yl}-7-methyl-6,7-dihydro-2H-furo[2,3-f][1,3]benzodioxole-7-carboxamide] | 7.52 | 119 |
| COc1ccc2c(c1)O[C@@H](c1ccc(C(=O)N3CCC(F)(F)CC3)cn1)C[C@H]2NC(=O)[C@@]1(C)COc2cc3c(cc21)OC(F)(F)O3 [Example 218, (7R)—N-{(2R,4R)-2-[5-(4,4-difluoropiperidine-1-carbonyl)pyridin-2-yl]-7-methoxy-3,4-dihydro-2H-1-benzopyran-4-yl}-2,2-difluoro-7-methyl-6,7-dihydro-2H-furo[2,3-f][1,3]benzodioxole-7-carboxamide] | 8.00 | 116 |
| COc1ccc2c(c1)O[C@@H](c1ccc(C(=O)N3CCCOCC3)cn1)C[C@H]2NC(=O)[C@@]1(C)COc2cc3c(cc21)OC(F)(F)O3 [Example 219, (7R)-2,2-difluoro-N-{(2R,4R)-7-methoxy-2-[5-(1,4-oxazepane-4-carbonyl)pyridin-2-yl]-3,4-dihydro-2H-1-benzopyran-4-yl}-7-methyl-6,7-dihydro-2H-furo[2,3-f][1,3]benzodioxole-7-carboxamide] | 7.52 | 105 |

More lines, in order of rising pEC50, values ahead:

| pEC50 | Maximum % activity (%) | Structure (SMILES) |
| --- | --- | --- |
| 6.92 | 104 | COc1ccc2c(c1)O[C@@H](c1ccc(C(=O)NC3CCS(=O)(=O)CC3)cn1)C[C@H]2NC(=O)[C@@]1(C)COc2cc3c(cc21)OC(F)(F)O3 [Example 217, 6-[(2R,4R)-4-{[(7R)-2,2-difluoro-7-methyl-6,7-dihydro-2H-furo[2,3-f][1,3]benzodioxole-7-carbonyl]amino}-7-methoxy-3,4-dihydro-2H-1-benzopyran-2-yl]-N-(1,1-dioxo-1lambda^6-thian-4-yl)pyridine-3-carboxamide] |
| 7.52 | 124 | COc1ccc2c(c1)O[C@@H](c1ccc(C(=O)N(C)CC(O)c3ccccc3)cn1)C[C@H]2NC(=O)[C@@]1(C)COc2cc3c(cc21)OC(F)(F)O3 (stereo partly drawn) [Example 211, 6-[(2R,4R)-4-{[(7R)-2,2-difluoro-7-methyl-6,7-dihydro-2H-furo[2,3-f][1,3]benzodioxole-7-carbonyl]amino}-7-methoxy-3,4-dihydro-2H-1-benzopyran-2-yl]-N-(2-hydroxy-2-phenylethyl)-N-methylpyridine-3-carboxamide] |
| 7.52 | 113 | COc1ccc2c(c1)O[C@@H](c1ccc(C(=O)NC(C)(C)CO)cn1)C[C@H]2NC(=O)[C@@]1(C)COc2cc3c(cc21)OC(F)(F)O3 [Example 215, 6-[(2R,4R)-4-{[(7R)-2,2-difluoro-7-methyl-6,7-dihydro-2H-furo[2,3-f][1,3]benzodioxole-7-carbonyl]amino}-7-methoxy-3,4-dihydro-2H-1-benzopyran-2-yl]-N-(1-hydroxy-2-methylpropan-2-yl)pyridine-3-carboxamide] |
| 7.52 | 130 | COc1ccc2c(c1)O[C@@H](c1ccc(C(=O)NC(CO)c3ccccc3)cn1)C[C@H]2NC(=O)[C@@]1(C)COc2cc3c(cc21)OC(F)(F)O3 (stereo partly drawn) [Example 216, 6-[(2R,4R)-4-{[(7R)-2,2-difluoro-7-methyl-6,7-dihydro-2H-furo[2,3-f][1,3]benzodioxole-7-carbonyl]amino}-7-methoxy-3,4-dihydro-2H-1-benzopyran-2-yl]-N-(2-hydroxy-1-phenylethyl)pyridine-3-carboxamide] |
